Test results reported in patent US12371453B2, “Polypeptide having antibacterial activity, composition for preventing or treating sepsis comprising same, and antibacterial composition” (priority 2019, dated 2025).
Where two headings read alike, the source gives them in different places. Square brackets hold non-standard residues; d marks the D form. Peptide text beside a SMILES is read from it.

Tests used:
[1] = test system: Acinetobacter baumannii (ATCC 19606); assay: microbe, parasite or virus in culture; conditions: Acinetobacter baumannii
Experimental: (§1) To compare the antibacterial activity between the four commercially available antibiotics (ampicillin, gentamicin, levofloxacin and imipenem) and the allD FP13-NH2 (AcOH) peptide, an antibacterial activity test was performed to measure the minimum inhibitory concentrations (MIC50 and MIC80) for gram-negative and gram-positive standard strains (Escherichia coli DH5α, Escherichia coli K1, Acinetobacter baumannii, Pseudomonas aeruginosa, Salmonella enteritidis, Salmonella typhimurium, and Klebsiella pneumoniae).
(§2) More specifically, 100 μL of a medium was dispensed into each well of a 96-well plate, and in the first column, an antibiotic and a peptide in 200 μL of the medium were dispensed. 1/2 serial dilution was performed from columns 1 to 11, and gram-negative and gram-positive bacteria which had been previously cultured were diluted (OD600 nm value in dilution: approximately 0.0025) and dispensed into each well. The plate was incubated in a 37° C. incubator for 4 hours, and measured at OD600 nm.

[2] = test system: Escherichia coli DH5α (ATCC PTA-4750); assay: microbe, parasite or virus in culture; conditions: Escherichia coli, 4 h
Experimental: as §1, §2

Escherichia coli K1 = assay: microbe, parasite or virus in culture; conditions: Escherichia coli
Experimental: as §1, §2

[3] = test system: Klebiella pneumoniae (ATCC 13883); assay: microbe, parasite or virus in culture; conditions: for MIC: Klebsiella pneumoniae
Experimental: as §1, §2

[4] = test system: Pseudomanas aeruginosa PAO1 (ATCC 47085D-5); assay: microbe, parasite or virus in culture; conditions: for MIC: Pseudomonas aeruginosa
Experimental: as §1, §2

[5] = test system: Salmonela enteritidis (ATCC 13076); assay: microbe, parasite or virus in culture; conditions: Salmonella enterica
Experimental: as §1, §2

[6] = test system: Salmonela typhimurium (ATCC 53648); assay: microbe, parasite or virus in culture; conditions: Salmonella enterica
Experimental: as §1, §2

CR-Klebsiella pneumoniae = test system: CR-Klebsiella pneumoniae
Experimental: (§3) The antibacterial activity was evaluated according to an antibacterial activity test method for measuring the minimum inhibitory concentration 50 (MIC50; the minimal concentration that kills 50% of bacteria).
as §2, with “11” for “11,”, “five types of antibiotic-resistant” for “gram-negative and gram-positive”, “bacteria (ESBL-resistant E. coli, carbapenem-resistant A. baumannii, carbapenem-resistant Klebsiella pneumoniae, carbapenem-resistant Pseudomonas aeruginosa, colistin-resistant Acinetobactor baumannii),” for “bacteria”, “cultured,” for “cultured”

[7] = test system: Colistin resistant AB (Acinetobactor baumannii)
Experimental: as §3
as §2, with “11” for “11,”, “five types of antibiotic-resistant” for “gram-negative and gram-positive”, “bacteria (ESBL-resistant E. coli, carbapenem-resistant A. baumannii, carbapenem-resistant Klebsiella pneumoniae, carbapenem-resistant Pseudomonas aeruginosa, colistin-resistant Acinetobactor baumannii),” for “bacteria”, “cultured,” for “cultured”

ESBL (E. coli) = test system: ESBL (E. coli)
Experimental: as §3
as §2, with “11” for “11,”, “five types of antibiotic-resistant” for “gram-negative and gram-positive”, “bacteria (ESBL-resistant E. coli, carbapenem-resistant A. baumannii, carbapenem-resistant Klebsiella pneumoniae, carbapenem-resistant Pseudomonas aeruginosa, colistin-resistant Acinetobactor baumannii),” for “bacteria”, “cultured,” for “cultured”

[8] = test system: Carbapenem resistant (CR)-Acinetobactor baumannii; assay: organism not typed
Experimental: as §3
as §2, with “11” for “11,”, “five types of antibiotic-resistant” for “gram-negative and gram-positive”, “bacteria (ESBL-resistant E. coli, carbapenem-resistant A. baumannii, carbapenem-resistant Klebsiella pneumoniae, carbapenem-resistant Pseudomonas aeruginosa, colistin-resistant Acinetobactor baumannii),” for “bacteria”, “cultured,” for “cultured”

[9] = LPS binding affinity by Isothermal Titration Calorimeter (ITC); design: species or system E. coli K1; conditions: for Kd: peptide binding to LPS, read-out: Kd (calculated by ITC); for LPS binding affinity (in words): compared with FP1 (wild type, WT)
Source text: FPT (ADK 44-54) is denoted by wild type (WT), and peptides in which a point mutation occurred at various sites in WT were manufactured (FP3, FP5, FP6, and FP9). To increase the interaction with LPS in a residue sequence of FP3, peptides were designed based on FP3- and LPS-binding models (FP12-NH2 and FP13-NH2), and peptides were designed by additionally introducing a non-natural amino acid and an amino acid isomer (allomeric D-type amino acid) (allD FP12-NH2, allD FP13-NH2, allD FP-13-9a, allD FP-13-9w, allD FP-13-9k, and allD FP13-NH2 (AcOH)). In addition, an N-terminus PEGylated peptide (PEG-alld FP13-NH2 (AcOH)) was additionally designed, synthesized, and provided by ANYGEN, Co. Ltd. The binding affinity between each of the provided peptides and lipopolysaccharide (LPS) was confirmed through measuring the binding affinity (Kd) using Isothermal Titration Calorimeter (ITC).
Specifically, a method of analyzing binding affinity (Kd) between a peptide and LPS is as follows.
Measurement was carried out using a Malvern MicroCal PEAQ-ITC cell instrument, and the following pretreatment was carried out to confirm interaction with LPS. The amount and morphology of a sample cell are 300 μL and coin-shaped, fixed-in-place, respectively; a syringe rotation rate was 1,200 rpm; and a temperature was 30° C., 35° C. or 25° C.
Before the experiment, LPS and the peptide were previously diluted with PBS, thereby preparing 2 mM LPS and 0.2 mM peptide. 300 μL of the peptide was added into cells in the ITC instrument, which had been washed, and 40 μL of LPS was put into a syringe. After measurement conditions for ITC (temperature, number of injections) were set, the syringe was inserted into the cell, and ITC measurement was started. When the measurement was completed, analysis is performed, and the Kd values of LPS and the peptide were calculated.

[10] = ATCC19606, read-out: MIC (μg/ml) 50%
[11] = ATCC19606, read-out: MIC (μg/ml) 80%
[12] = colistin resistant A. baumannii
[13] = ATCC13883, read-out: MIC (μg/ml) 50%
[14] = ATCC13883, read-out: MIC (μg/ml) 80%
[15] = PAO1, read-out: MIC (μg/ml) 50%
[16] = PAO1, read-out: MIC (μg/ml) 80%

## CC1(C)S[C@@H]2[C@H](NC(=O)[C@H](N)c3ccccc3)C(=O)N2[C@H]1C(=O)O [Ampicillin, ampicillin]
[1]; [10]
  MIC: < 32 µg/mL
[1]; [11]
  MIC: < 64 µg/mL
[2]; read-out: MIC (μg/ml) 50%
  MIC: < 2 µg/mL
[2]; read-out: MIC (μg/ml) 80%
  MIC: < 4 µg/mL
Escherichia coli K1; K1, read-out: MIC (μg/ml) 50%
  MIC: < 4 µg/mL
Escherichia coli K1; K1, read-out: MIC (μg/ml) 80%
  MIC: < 8 µg/mL
[3]; Klebsiella pneumoniae ATCC 13883, 50% growth inhibition
  MIC (μg/ml) 50%: no effect
[3]; Klebsiella pneumoniae ATCC 13883, 80% growth inhibition
  MIC (μg/ml) 80%: no effect
[4]; Pseudomonas aeruginosa PAO1, 50% growth inhibition
  MIC (μg/ml) 50%: no effect
[4]; Pseudomonas aeruginosa PAO1, 80% growth inhibition
  MIC (μg/ml) 80%: no effect
[5]; read-out: MIC (μg/ml) 50%
  MIC: < 4 µg/mL
[5]; read-out: MIC (μg/ml) 80%
  MIC: < 8 µg/mL
[6]; read-out: MIC (μg/ml) 50%
  MIC: < 1 µg/mL
[6]; read-out: MIC (μg/ml) 80%
  MIC: < 2 µg/mL
CR-Klebsiella pneumoniae; CR-K. pneumoniae
  MIC50, CR-Klebsiella pneumoniae: No effect
[7]; [12]
  MIC50, Colistin resistant AB: No effect
ESBL (E. coli); ESBL E. coli
  MIC50, ESBL (E. coli): No effect
[8]; read-out: MIC50, Carbapenem resistant (CR)-Acinetobactor baumannii
  MIC50: < 16 µg/mL

## C[C@@H](O)[C@H]1C(=O)N2C(C(=O)O)=C(SCCN=CN)C[C@H]12 [Imipenem, imipenem]
[1]; [10]
  MIC: < 8 µg/mL
[1]; [11]
  MIC: < 15 µg/mL
[2]; read-out: MIC (μg/ml) 50%
  MIC: < 4 µg/mL
[2]; read-out: MIC (μg/ml) 80%
  MIC: < 8 µg/mL
Escherichia coli K1; K1, read-out: MIC (μg/ml) 50%
  MIC: < 0.5 µg/mL
Escherichia coli K1; K1, read-out: MIC (μg/ml) 80%
  MIC: < 1 µg/mL
[3]; [13]
  MIC: < 2 µg/mL
[3]; [14]
  MIC: < 8 µg/mL
[4]; [15]
  MIC: < 32 µg/mL
[4]; [16]
  MIC: < 64 µg/mL
[5]; read-out: MIC (μg/ml) 50%
  MIC: < 4 µg/mL
[5]; read-out: MIC (μg/ml) 80%
  MIC: < 8 µg/mL
[6]; read-out: MIC (μg/ml) 50%
  MIC: < 4 µg/mL
[6]; read-out: MIC (μg/ml) 80%
  MIC: < 8 µg/mL
CR-Klebsiella pneumoniae; CR-K. pneumoniae
  MIC50, CR-Klebsiella pneumoniae: No effect
[7]; [12]
  MIC50, Colistin resistant AB: No effect
ESBL (E. coli); ESBL E. coli
  MIC50, ESBL (E. coli): No effect
[8]; CR-A. baumannii
  MIC50, Carbapenem resistant (CR)-Acinetobactor baumannii: No effect

## C[C@H]1COc2c(N3CCN(C)CC3)c(F)cc3c(=O)c(C(=O)O)cn1c23 [Levofloxacin, levofloxacin]
[1]; [10]
  MIC: < 0.5 µg/mL
[1]; [11]
  MIC: < 1 µg/mL
[2]; read-out: MIC (μg/ml) 50%
  MIC: < 0.5 µg/mL
[2]; read-out: MIC (μg/ml) 80%
  MIC: < 1 µg/mL
Escherichia coli K1; K1, read-out: MIC (μg/ml) 50%
  MIC: < 0.5 µg/mL
Escherichia coli K1; K1, read-out: MIC (μg/ml) 80%
  MIC: < 1 µg/mL
[3]; [13]
  MIC: < 0.5 µg/mL
[3]; [14]
  MIC: < 1 µg/mL
[4]; [15]
  MIC: < 0.5 µg/mL
[4]; [16]
  MIC: < 1 µg/mL
[5]; read-out: MIC (μg/ml) 50%
  MIC: < 0.5 µg/mL
[5]; read-out: MIC (μg/ml) 80%
  MIC: < 1 µg/mL
[6]; read-out: MIC (μg/ml) 50%
  MIC: < 0.5 µg/mL
[6]; read-out: MIC (μg/ml) 80%
  MIC: < 1 µg/mL

## CC(C)C[C@@H](NC(=O)[C@H](N)CCCNC(=N)N)C(=O)N[C@H](CCCNC(=N)N)C(=O)N[C@@H](C(=O)N[C@H](CCCCN)C(=O)N[C@H](CC(C)C)C(=O)N[C@H](CCCNC(=N)N)C(=O)N[C@H](CCCNC(=N)N)C(=O)N[C@H](Cc1c[nH]c2ccccc12)C(=O)N[C@H](CC(C)C)C(=O)N[C@H](CCCNC(=N)N)C(N)=O)C(C)C [allD FP21-NH2] (H-[dR][dL][dR][dV][dK][dL][dR][dR][dW][dL][dR]-NH2; N-terminus assumed)
CR-Klebsiella pneumoniae; CR-
  MIC50, CR-Klebsiella pneumoniae: <4 µg/mL
[7]
  MIC50, Colistin resistant AB: <4 µg/mL
ESBL (E. coli); ESBL
  MIC50, ESBL (E. coli): <0.5 µg/mL
[8]
  MIC50, Carbapenem resistant (CR)-Acinetobactor baumannii: <1 µg/mL

## KLGVEAKRYLD [FP1(WT), reference compound]
[9]
  Kd: 238 µM

## KLGVEAKRYLR [FP3]
[9]
  LPS binding affinity (in words): strong LPS binding affinity
  Kd: 332 µM

## KLGVEALRYLD [FP9]
[9]
  LPS binding affinity (in words): strong LPS binding affinity
  Kd: 326 µM

## KLRVKLRRWLR [allD FP-13-9w-NH2]
[9]
  LPS binding affinity (in words): strong LPS binding affinity
  Kd: 17.4 µM
